Read-outs that look alike come from different tables or passages of the source.
Experiments:
physchem = conditions: octanol/water
[1] = system: guinea pig foot pad stratum corneum; experiment: Increase in extensibility of guinea pig foot pad stratum corneum; design: Increase in stratum corneum extensibility: unit not given here
Description: The ability of an additive to enhance the delivery to skin of 2-hydroxyoctanoic acid was measured in terms of the increase in extensibility of guinea pig foot pad stratum corneum following contact with each solution.
In this experiment, pieces of guinea pig foot pad stratum corneum, equilibrated at a relative humidity of 65%, were immersed in each solution for 3 hours at 20° C., and then removed, blotted dry and re-equilibrated at the same relative humidity. The extensibility of each piece of guinea pig foot pad stratum corneum was measured before and after this treatment in an extensiometer according to the method described in European Pat. No. 7785.

[2] = Dielectric constant of oils measured in a liquid state; format: physicochemical
From the text: The product can also optionally comprise an oil, fat or wax, herein referred to as "oil" having a dielectric constant of not greater than 3.0.
Examples of preferred "oils", when employed, together with their dielectric constants measured when they are in a liquid state are given below: […]

[3] = as recorded in Handbook of Chemistry & Physics, 57th Edition 1976-77; cited from earlier work
[4] = system: guinea pig stratum corneum; experiment: Delivery of C14 labelled phenol to guinea pig stratum corneum; conditions: in words
Description: The phenol used in the preparation of each emulsion was C^14 labelled phenol.
Pieces of guinea pig stratum corneum were immersed in each of the above emulsions for 20 hours, after which they were removed, blotted dry and the amount of phenol retained by the corneum was measured by a radio tracer technique using a standard methodology.

| Structure (SMILES) | Dielectric constant [2] | Dielectric constant [3] | also measured |
| --- | --- | --- | --- |
| CCCCCCC(O)C(=O)O (stereo not drawn) [2-hydroxyoctanoic acid] | – | – | logP (physchem): 2.24; Increase in stratum corneum extensibility ([1]; 0.2 M 2-hydroxyoctanoic acid + additive at 5% w/w, 3 hours at 20° C., relative humidity 65%): 5; Increase in stratum corneum extensibility / delivery to skin, in words ([1]; conclusion in words): greatly enhanced |
| CCCCCCCCO [Octanol] | 10.3 | – | – |
| CCCCC/C=C\C/C=C\CCCCCCCC(=O)O [linoleic acid] | – | 2.71 | – |
| CCCCCCCCCC [n-decane] | – | 1.99 | – |
| CCCCCCCCCCCC [n-dodecane] | – | 2.02 | – |
| CCCCCCCC/C=C\CCCCCCCC(=O)O [oleic acid] | – | 2.46 | – |
| Oc1ccccc1 [phenol] | – | – | Amount of phenol delivered to the skin relative to ordinary emulsion (Control) [4]: enhanced when a gel phase is present |

Further lines, with some results ahead:

| Dielectric constant [2] | Structure (SMILES) | Dielectric constant [3] | also measured |
| --- | --- | --- | --- |
| < 3.0 | CCCCCCCCCCCCCCCC [n-hexadecane] | – | – |
| < 3.0 | CCCCCCCCCCCCCCCCCC [n-octadecane] | – | – |
| < 3.0 | CCCCCCCCCCCCCC [n-tetradecane] | – | – |

Reference: patent US4699924A, “Skin treatment composition” (priority 1983, dated 1987)
